Earlier results in patent publication US20210085696A1, “FORMULATIONS COMPRISING CHELATORS, PERMEATION ENHANCERS AND HYDROXYETHYL CELLULOSE FOR TREATING OPHTHALMIC DISORDERS” (LIVIONEX, Inc., priority 2018, published 2021).

Settings: @ 79° F.

water solubility: 34 % w/v
SMILES: CS(C)(=O)=O [MSM, methylsulfonylmethane]
